From patent EP4603105A1, “PHARMACEUTICAL COMPOSITION CONTAINING CYCLIC COMPOUND HAVING SELECTIVE KRAS INHIBITORY EFFECT AGAINST HRAS AND NRAS” (CHUGAI SEIYAKU KABUSHIKI KAISHA, priority 2022, dated 2024)
Where a SMILES comes first, the peptide text is derived from it. Bridges are numbered along the chain shown (N, C = ends). [ ]: non-standard residue; d: D form. The star is where a group is joined. hPhe(3-Cl-4-CF3) = N[C@@H](CCc1ccc(C(F)(F)F)c(Cl)c1)C(=O)O; NPrPhe(4-CF3) = CCCN[C@@H](Cc1ccc(C(F)(F)F)cc1)C(=O)O; NEtPhe(4-Me) = CCN[C@@H](Cc1ccc(C)cc1)C(=O)O; NMeAbu(4,4,4-F3) = CN[C@@H](CC(F)(F)F)C(=O)O; NMeGly(cPent) = CN[C@H](C(=O)O)C1CCCC1; Pro(4,4-F2) = O=C(O)[C@@H]1CC(F)(F)CN1; NMeD = CN[C@@H](CC(=O)O)C(=O)O; NMeL = CN[C@@H](CC(C)C)C(=O)O; Ac6c = NC1(C(=O)O)CCCCC1; Morpholide = C1CN(*)CCO1; NMeA = CN[C@@H](C)C(=O)O; Ac5c = NC1(C(=O)O)CCCC1; Aze = O=C(O)[C@@H]1CCN1; Ac4c = NC1(C(=O)O)CCC1; Sar = CNCC(=O)O

Assays:
[1] = target: GDP-bound NRAS wild-type protein (Homo sapiens, UniProt P01111); assay: Binding to NRAS by surface plasmon resonance (SPR), KD and KD ratio to KRAS
Summary of the method: (§1)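 GDP-bound biotin-Avi RAS captured at ~100–300 RU, 30°C, pH 7.4 HBS containing 10 µM GDP, 10 mM MgCl2, 1 mM DTT, 0.01% Tween 20 and 4% DMSO. KD by 1:1 fitting.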

[2] = test system: human lung cancer strain NCI-H441; type: cell-based
Summary of the method: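 Readout: […] after the ATP-based reagent. Compound: serial dilutions in dimethyl sulfoxide.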

[3] = target: HRAS wild-type protein (Homo sapiens, UniProt P01112); assay: Binding to HRAS by surface plasmon resonance (SPR), KD and KD ratio to KRAS
Summary of the method: as §1

[4] = ratio of KD for GDP-bound NRAS wild-type protein to KD for KRAS
[5] = ratio of KD for HRAS wild-type protein to KD for KRAS
[6] = ratio of KD value for GDP-bound NRAS wild-type protein to KD value for KRAS (SPR)
[7] = ratio of KD value for HRAS wild-type protein to KD value for KRAS (SPR)
[8] = ratio of the KD value with respect to GDP-bound NRAS wild-type protein to the KD value with respect to KRAS
[9] = ratio of the KD value with respect to HRAS wild-type protein to the KD value with respect to KRAS

Sequence of HRAS wild-type protein (P01112 whole entry): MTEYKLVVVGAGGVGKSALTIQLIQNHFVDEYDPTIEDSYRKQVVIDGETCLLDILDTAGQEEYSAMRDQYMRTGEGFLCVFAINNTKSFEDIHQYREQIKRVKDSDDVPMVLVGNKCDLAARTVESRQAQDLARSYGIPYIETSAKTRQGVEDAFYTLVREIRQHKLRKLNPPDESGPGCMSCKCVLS
Sequence of GDP-bound NRAS wild-type protein (P01111 whole entry): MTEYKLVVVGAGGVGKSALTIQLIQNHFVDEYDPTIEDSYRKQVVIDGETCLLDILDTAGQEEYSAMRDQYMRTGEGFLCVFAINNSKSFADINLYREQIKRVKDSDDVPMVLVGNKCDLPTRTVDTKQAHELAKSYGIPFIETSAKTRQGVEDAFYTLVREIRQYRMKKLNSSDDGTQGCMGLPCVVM

| Structure (SMILES) | IC50 [2] [µM] | NRAS /KRAS [1, 4] | HRAS /KRAS [3, 5] | NRAS /KRAS [1, 6] | HRAS /KRAS [3, 7] | NRAS /KRAS [1, 8] | HRAS /KRAS [3, 9] |
| --- | --- | --- | --- | --- | --- | --- | --- |
| CC[C@H](C)[C@@H]1NC(=O)[C@H](CC(F)(F)F)N(C)C(=O)C[C@@H](C(=O)N2CCOCC2)N(C)C(=O)[C@H](C2CCCC2)N(C)C(=O)C2(CCCC2)NC(=O)[C@@H]2CCCN2C(=O)[C@H](CCc2ccc(C(F)(F)F)c(Cl)c2)NC(=O)CN(C)C(=O)[C@H](Cc2ccc(C)cc2)N(CC)C(=O)CN(C)C(=O)CN(C)C1=O [PP0032] ([NMeAbu(4,4,4-F3)]I[Sar][Sar][NEtPhe(4-Me)][Sar][hPhe(3-Cl-4-CF3)]P[Ac5c][NMeGly(cPent)][NMeD]-Morpholide; lactam N-11) | 0.0269 | C (A compound having a KD ratio of 0.1 or more and less than 3 is denoted as C) | C (A compound having a KD ratio of 0.1 or more and less than 3 is denoted as C) |  |  |  |  |
| CCO[C@@H]1C[C@H]2C(=O)NC3(CC(C)(C)C3)C(=O)N(C)[C@@H](C(CC)CC)C(=O)N(C)[C@H](C(=O)N(C)C)CC(=O)N(C)[C@@H](COC)C(=O)N[C@@H]([C@@H](C)CC)C(=O)N(C)CC(=O)N(C)[C@H]3C/C=C\CCN(C3=O)[C@@H](Cc3ccc(C(F)(F)F)cc3)C(=O)N(C)CC(=O)N[C@@H](CCc3ccc(C(F)(F)F)c(OC)c3)C(=O)N2C1 [PP2157] | 0.0059 |  |  |  |  | A (a compound having 10 or more and less than 20 is denoted as A) | A (a compound having 10 or more and less than 20 is denoted as A) |
| CC[C@H](C)[C@@H]1NC(=O)[C@H](CC2CC2)N(C)C(=O)C[C@@H](C(=O)N(C)C)N(C)C(=O)[C@H](C2CCCC2)N(C)C(=O)C2(CC(C)(C)C2)NC(=O)[C@@H]2C[C@@H](F)CN2C(=O)[C@H](CCc2cc(F)c(C(F)(F)F)c(F)c2)NC(=O)CN(C)C(=O)[C@H](Cc2ccc(C)cc2)N2CC/C=C\C[C@@H](C2=O)N(C)C(=O)CN(C)C1=O [PP2804] | 0.0022 | A (a compound having 10 or more and less than 20 is denoted as A) | A (a compound having 10 or more and less than 20 is denoted as A) |  |  |  |  |
| C#CCN1CC(=O)N(C)[C@H]2C/C=C\CCN(C2=O)[C@@H](Cc2ccc(C)cc2)C(=O)N(C)CC(=O)N[C@@H](CCc2cc(F)c(C(F)(F)F)c(F)c2)C(=O)N2C[C@H](OCC)C[C@H]2C(=O)NC2(CC(C)(C)C2)C(=O)N(C)[C@@H](C2CCCC2)C(=O)N(C)[C@H](C(=O)N(C)C)CC(=O)N(C)[C@@H](CCC)C(=O)N[C@@H]([C@@H](C)CC)C1=O [PP2095] | 0.0057 |  |  |  |  | A (a compound having 10 or more and less than 20 is denoted as A) | A (a compound having 10 or more and less than 20 is denoted as A) |
| CCCN1C(=O)[C@@H]2CCN2C(=O)[C@H](C)N(C)C(=O)[C@H]([C@@H](C)CC)NC(=O)[C@H](CC(C)C)N(C)C(=O)C[C@@H](C(=O)N2CCOCC2)N(C)C(=O)[C@H](C2CCCC2)N(C)C(=O)C2(CCC2)NC(=O)[C@@H]2CC(F)(F)CN2C(=O)[C@H](CCc2ccc(C(F)(F)F)c(Cl)c2)NC(=O)CN(C)C(=O)[C@@H]1Cc1ccc(C(F)(F)F)cc1 [PP0208] ([NMeL]I[NMeA][Aze][NPrPhe(4-CF3)][Sar][hPhe(3-Cl-4-CF3)][Pro(4,4-F2)][Ac4c][NMeGly(cPent)][NMeD]-Morpholide; lactam N-11) | 0.0046 | C (A compound having a KD ratio of 0.1 or more and less than 3 is denoted as C) | C (A compound having a KD ratio of 0.1 or more and less than 3 is denoted as C) |  |  |  |  |
| CCO[C@@H]1C[C@H]2C(=O)NC3(CCC3)C(=O)N(C)[C@@H](C3CCCC3)C(=O)N3CCC[C@@H]3CC(=O)N(C)[C@@H](CC3CC3)C(=O)N[C@@H]([C@@H](C)CC)C(=O)N(C)CC(=O)N(C)[C@H]3C/C=C\CCN(C3=O)[C@@H](Cc3ccc(C(F)(F)F)cc3)C(=O)N(C)CC(=O)N[C@@H](CCc3ccc(C(F)(F)F)c(OC)c3)C(=O)N2C1 [PP1616] | 0.0335 |  |  | B (a compound having 3 or more and less than 10 is denoted as B) | B (a compound having 3 or more and less than 10 is denoted as B) |  |  |
| CCCN1C(=O)[C@@H]2CCN2C(=O)[C@H](C)N(C)C(=O)[C@H]([C@@H](C)CC)NC(=O)[C@H](CC(C)C)N(C)C(=O)C[C@@H](C(=O)N2CCOCC2)N(C)C(=O)[C@H](C2CCCC2)N(C)C(=O)C2(CCCCC2)NC(=O)[C@@H]2CCCN2C(=O)[C@H](CCc2ccc(C(F)(F)F)c(Cl)c2)NC(=O)CN(C)C(=O)[C@@H]1Cc1ccc(C(F)(F)F)cc1 [PP0226] ([NMeL]I[NMeA][Aze][NPrPhe(4-CF3)][Sar][hPhe(3-Cl-4-CF3)]P[Ac6c][NMeGly(cPent)][NMeD]-Morpholide; lactam N-11) | 0.0153 | C (A compound having a KD ratio of 0.1 or more and less than 3 is denoted as C) | B (a compound having 3 or more and less than 10 is denoted as B) |  |  |  |  |
| CCC[C@H]1C(=O)N[C@@H]([C@@H](C)CC)C(=O)N(C)CC(=O)N(C)[C@H]2C/C=C\CCN(C2=O)[C@@H](Cc2ccc(C(F)(F)F)cc2)C(=O)N(C)CC(=O)N[C@@H](CCc2ccc(C(F)(F)F)c(OC)c2)C(=O)N2C[C@H](OCC)C[C@H]2C(=O)NC2(CC(C)(C)C2)C(=O)N(C)[C@@H](C2CCCC2)C(=O)N(C)[C@H](C(=O)N(C)C)CC(=O)N1C [PP1560] | 0.0018 |  |  | A (a compound having 10 or more and less than 20 is denoted as A) | B (a compound having 3 or more and less than 10 is denoted as B) |  |  |

Continued, in another order:

| IC50 [2] [µM] | Structure (SMILES) | NRAS /KRAS [1, 4] | HRAS /KRAS [3, 5] | NRAS /KRAS [1, 6] | HRAS /KRAS [3, 7] | NRAS /KRAS [1, 8] | HRAS /KRAS [3, 9] |
| --- | --- | --- | --- | --- | --- | --- | --- |
| 0.0366 | CCO[C@@H]1C[C@H]2C(=O)NC3(CC(F)(F)C3)C(=O)N(C)[C@@H](C3CCCC3)C(=O)N(C)C(C(C)C)CC(=O)N(C)[C@@H](CC3CC3)C(=O)N[C@@H]([C@@H](C)CC)C(=O)N(C)CC(=O)N(C)[C@H]3C/C=C\CCN(C3=O)[C@@H](Cc3ccc(C(F)(F)F)cc3)C(=O)N(C)CC(=O)N[C@@H](CCc3cc(F)c(C(F)(F)F)c(F)c3)C(=O)N2C1 (stereo partly drawn) [PP1598] |  |  | A (a compound having 10 or more and less than 20 is denoted as A) | A (a compound having 10 or more and less than 20 is denoted as A) |  |  |
| 0.0122 | CCO[C@@H]1C[C@H]2C(=O)NC3(CCC3)C(=O)N(C)[C@@H](C3CCCC3)C(=O)N(C)[C@H](C(=O)N(C)C)CC(=O)N(C)[C@@H](CC)C(=O)N[C@@H]([C@@H](C)CC)C(=O)N(C)CC(=O)N(C)[C@H]3CCCCN(C3=O)[C@@H](Cc3ccc(C(F)(F)F)cc3)C(=O)N(C)CC(=O)N[C@@H](CCc3cc(Cl)c(C(F)(F)F)c(Cl)c3)C(=O)N2C1 [PP0985] | C (A compound having a KD ratio of 0.1 or more and less than 3 is denoted as C) | C (A compound having a KD ratio of 0.1 or more and less than 3 is denoted as C) |  |  |  |  |
| 0.0457 | CCO[C@@H]1C[C@H]2C(=O)NC3(CCC3)C(=O)N(C)[C@@H](C3CCCC3)C(=O)N(CCC3CCC3)[C@H](C(=O)N3CCOCC3)CC(=O)N(C)[C@@H](CC(C)C)C(=O)N[C@@H]([C@@H](C)CC)C(=O)N(C)CC(=O)N(C)[C@H]3CCCCN(C3=O)[C@@H](Cc3ccc(C(F)(F)F)cc3)C(=O)N(C)CC(=O)N[C@@H](CCc3cc(F)c(C(F)(F)F)c(F)c3)C(=O)N2C1 [PP0650] |  |  |  |  | C (A compound having a KD ratio of 0.1 or more and less than 3 is denoted as C) | B (a compound having 3 or more and less than 10 is denoted as B) |
